Test results published in patent USRE38330E1, “Preventing and reversing advanced glycosylation endproducts” (Alteon Inc., priority 1995, dated 2003).

Test system: fixed protein (gelatin, i.e., collagen) surface
Test: Surface browning experiment on gelatin/paper disks in glucose-6-phosphate
Settings: 100 mM glucose-6-phosphate, one week at 50° C., final concentration of 0.04% chlorhexidine (Peridex)
Method: To further study the ability of inhibitors of nonenzymatic browning to prevent the discoloration of protein on a surface, such as that which occurs on the tooth surface, the following surface browning experiment is performed. As a substitute for a pellicle-covered tooth surface, unexposed and developed photographic paper is used to provide a fixed protein (gelatin, i.e., collagen) surface on a paper backing. […] Glucose-6-phosphate is a sugar capable of participating in nonenzymatic browning at a more rapid rate than glucose. In addition to the glucose-6-phosphate, chlorhexidine and/or a compound of Formula I are included. After incubation, the gelatin/paper disks are rinsed with water, observed for brown color, and photographed.

SMILES: [H]/N=C(\N/C(=N/[H])NCCCCCCNC(=N)NC(=N)Nc1ccc(Cl)cc1)Nc1ccc(Cl)cc1 [chlorhexidine]
- brown color of gelatin/paper disks: significant browning
